We go through 16 compounds from US20230365576A1, “BRM Targeting Compounds And Associated Methods Of Use” (Prelude Therapeutics Incorporated, priority 2022, published 2023).

For one assay, the target named is T1, SMARCA2 (Homo sapiens, UniProt P51531).
T1 construct: SMARCA2-HiBiT knock-in Hela monoclonal cell (CS302366); host or cells: HeLa (CRISPR HiBiT knock-in monoclonal line, heterozygous)
The experiment in a line: SMARCA2 HiBiT degradation assay in HeLa cells. In kind it is cell-based. The following applies: 18 hours; for DC50: read-out: SMARCA2 IC50; for Dmax: HeLa. The procedure, abridged: (§1)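 Degradation measured as HiBiT luminescence (Nano-Glo lytic reagent) after 18 h compound exposure at 37° C. Cells were HeLa clones carrying heterozygous HiBiT tags on SMARCA2 or SMARCA4, 2500 per well; compounds at 3-fold serial dilution from 10 μM.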
In general terms: With HiBiT, luminescence reflects the tagged protein that the partner subunit can reach.

In another assay the target is T2, SMARCA4 (Homo sapiens, UniProt P51532).
T2 construct: SMARCA4-HiBiT knock-in Hela monoclonal cell (CS3023226) were purchased from Promega; host or cells: HeLa (CRISPR HiBiT knock-in monoclonal line, heterozygous)
Kind of assay: SMARCA4 HiBiT degradation assay in HeLa cells. In kind it is cell-based. The conditions noted are these: 18 hours; for Dmax: HeLa. Summed up:
as §1

T1 sequence (P51531 whole entry): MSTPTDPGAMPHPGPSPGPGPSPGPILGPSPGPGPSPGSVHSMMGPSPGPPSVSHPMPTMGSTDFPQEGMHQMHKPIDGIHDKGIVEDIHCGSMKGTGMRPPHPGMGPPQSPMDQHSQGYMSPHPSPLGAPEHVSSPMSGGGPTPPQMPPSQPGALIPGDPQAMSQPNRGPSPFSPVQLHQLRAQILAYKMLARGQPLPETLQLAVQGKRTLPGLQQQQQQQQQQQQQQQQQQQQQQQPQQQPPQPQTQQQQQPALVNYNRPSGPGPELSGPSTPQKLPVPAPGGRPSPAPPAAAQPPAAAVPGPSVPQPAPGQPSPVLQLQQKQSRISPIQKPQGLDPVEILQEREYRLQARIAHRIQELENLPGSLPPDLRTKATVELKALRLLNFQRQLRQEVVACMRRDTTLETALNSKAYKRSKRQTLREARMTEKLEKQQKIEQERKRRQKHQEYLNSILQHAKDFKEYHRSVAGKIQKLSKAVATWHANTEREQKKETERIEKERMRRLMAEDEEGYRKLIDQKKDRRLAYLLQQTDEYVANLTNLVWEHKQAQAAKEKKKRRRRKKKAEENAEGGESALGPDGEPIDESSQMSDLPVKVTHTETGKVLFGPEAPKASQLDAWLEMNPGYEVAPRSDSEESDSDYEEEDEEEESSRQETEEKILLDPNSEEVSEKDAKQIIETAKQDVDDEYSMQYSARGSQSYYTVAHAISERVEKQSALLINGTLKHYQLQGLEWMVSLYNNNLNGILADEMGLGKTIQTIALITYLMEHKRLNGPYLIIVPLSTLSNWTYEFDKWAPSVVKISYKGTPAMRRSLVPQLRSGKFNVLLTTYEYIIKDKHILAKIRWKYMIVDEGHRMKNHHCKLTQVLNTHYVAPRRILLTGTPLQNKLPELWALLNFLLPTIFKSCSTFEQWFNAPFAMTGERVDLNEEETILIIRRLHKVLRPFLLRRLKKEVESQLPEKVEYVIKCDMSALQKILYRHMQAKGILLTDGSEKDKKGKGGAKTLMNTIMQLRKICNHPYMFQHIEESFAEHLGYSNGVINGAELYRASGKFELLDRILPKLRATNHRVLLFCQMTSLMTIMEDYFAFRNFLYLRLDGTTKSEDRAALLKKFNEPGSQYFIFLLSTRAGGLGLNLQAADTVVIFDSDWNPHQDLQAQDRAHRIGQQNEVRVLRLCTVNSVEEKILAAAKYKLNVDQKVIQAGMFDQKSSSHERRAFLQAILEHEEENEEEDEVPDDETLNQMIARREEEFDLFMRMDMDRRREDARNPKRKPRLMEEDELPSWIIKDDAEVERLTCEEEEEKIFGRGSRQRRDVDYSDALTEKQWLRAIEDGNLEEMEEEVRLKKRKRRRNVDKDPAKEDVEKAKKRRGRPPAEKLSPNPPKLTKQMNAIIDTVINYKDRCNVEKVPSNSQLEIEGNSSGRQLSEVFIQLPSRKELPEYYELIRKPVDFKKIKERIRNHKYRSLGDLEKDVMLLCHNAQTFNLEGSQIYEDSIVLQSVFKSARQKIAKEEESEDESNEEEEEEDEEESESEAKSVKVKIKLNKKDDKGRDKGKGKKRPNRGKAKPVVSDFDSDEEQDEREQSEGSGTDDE
T2 sequence (P51532 whole entry): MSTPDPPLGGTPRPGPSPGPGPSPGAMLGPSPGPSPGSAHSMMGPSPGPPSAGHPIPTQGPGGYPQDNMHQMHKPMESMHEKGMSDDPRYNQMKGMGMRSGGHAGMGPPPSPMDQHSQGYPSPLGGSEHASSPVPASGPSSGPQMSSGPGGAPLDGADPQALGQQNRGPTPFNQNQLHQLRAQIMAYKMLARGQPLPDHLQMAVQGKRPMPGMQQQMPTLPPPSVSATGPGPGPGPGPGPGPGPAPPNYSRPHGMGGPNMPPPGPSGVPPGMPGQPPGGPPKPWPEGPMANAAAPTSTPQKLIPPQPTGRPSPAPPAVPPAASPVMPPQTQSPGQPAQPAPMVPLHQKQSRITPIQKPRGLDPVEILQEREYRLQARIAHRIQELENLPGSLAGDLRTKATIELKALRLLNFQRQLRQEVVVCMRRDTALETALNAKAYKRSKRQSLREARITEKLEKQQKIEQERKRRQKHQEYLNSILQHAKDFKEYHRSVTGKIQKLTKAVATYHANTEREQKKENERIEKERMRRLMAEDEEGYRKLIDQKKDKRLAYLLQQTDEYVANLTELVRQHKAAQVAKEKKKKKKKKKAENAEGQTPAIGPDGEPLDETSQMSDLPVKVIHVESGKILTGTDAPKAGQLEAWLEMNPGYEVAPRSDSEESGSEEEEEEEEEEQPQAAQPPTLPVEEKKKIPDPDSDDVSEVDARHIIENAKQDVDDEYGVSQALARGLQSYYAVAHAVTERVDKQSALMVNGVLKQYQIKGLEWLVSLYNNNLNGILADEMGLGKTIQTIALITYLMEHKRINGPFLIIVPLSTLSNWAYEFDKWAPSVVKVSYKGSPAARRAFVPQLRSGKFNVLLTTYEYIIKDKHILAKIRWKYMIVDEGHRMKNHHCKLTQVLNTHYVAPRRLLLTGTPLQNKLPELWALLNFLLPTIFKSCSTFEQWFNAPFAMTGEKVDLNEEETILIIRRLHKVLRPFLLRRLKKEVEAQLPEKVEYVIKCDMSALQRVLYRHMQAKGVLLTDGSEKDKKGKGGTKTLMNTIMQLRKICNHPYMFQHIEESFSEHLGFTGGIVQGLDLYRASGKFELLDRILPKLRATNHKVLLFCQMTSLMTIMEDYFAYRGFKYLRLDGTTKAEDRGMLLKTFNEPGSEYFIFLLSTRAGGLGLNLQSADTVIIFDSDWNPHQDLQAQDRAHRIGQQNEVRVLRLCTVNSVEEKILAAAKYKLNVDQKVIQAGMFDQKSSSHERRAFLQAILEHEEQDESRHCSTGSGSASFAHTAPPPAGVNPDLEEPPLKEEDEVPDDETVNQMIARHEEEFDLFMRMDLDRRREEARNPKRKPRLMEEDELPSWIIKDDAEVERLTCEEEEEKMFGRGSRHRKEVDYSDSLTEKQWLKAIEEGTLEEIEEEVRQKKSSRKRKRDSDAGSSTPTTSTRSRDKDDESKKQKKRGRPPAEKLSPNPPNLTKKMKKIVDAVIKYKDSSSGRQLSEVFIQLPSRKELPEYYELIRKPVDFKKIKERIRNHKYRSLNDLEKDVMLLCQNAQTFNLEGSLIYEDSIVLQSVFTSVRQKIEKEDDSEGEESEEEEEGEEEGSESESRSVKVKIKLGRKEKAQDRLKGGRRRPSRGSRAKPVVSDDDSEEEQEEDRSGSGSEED

With `C[C@@H]1CN(C[C@H]2CN(c3ccc4c(c3)CN(C3CCC(=O)NC3=O)C4=O)CCO2)C[C@H](C)N1C(=O)N1CCN2c3cc(-c4cccc(F)c4O)nnc3NC[C@H]2C1` (stereo partly drawn) [Example 3, 3-(5-((S)-2-(((3R,5S)-4-((S)-2-(3-fluoro-2-hydroxyphenyl)-6,6a,7,8,9,10-hexahydro-5H-pyrazino[1′,2′:4,5]pyrazino[2,3-c]pyridazine-8-carbonyl)-3,5-dimethylpiperazin-1-yl)methyl)morpholino)-1-oxoisoindolin-2-yl)piperidine-2,6-dione], the DC50 at SMARCA2 and at SMARCA4 was < 100 nM each time. Besides, the figures for the Dmax at SMARCA2 and at SMARCA4 were > 75% and < 50%, respectively.

Consider `C[C@@H]1CN(CC2CCN(c3ccc4c(c3)C(=O)N(C3CCC(=O)NC3=O)C4)CC2)C[C@H](C)N1C(=O)N1CCN2c3cc(-c4cccc(F)c4O)nnc3NC[C@H]2C1` (stereo partly drawn) [Example 1, 3-(6-(4-(((3R,5S)-4-((S)-2-(3-fluoro-2-hydroxyphenyl)-6,6a,7,8,9,10-hexahydro-5H-pyrazino[1′,2′:4,5]pyrazino[2,3-c]pyridazine-8-carbonyl)-3,5-dimethylpiperazin-1-yl)methyl)piperidin-1-yl)-1-oxoisoindolin-2-yl)piperidine-2,6-dione], for which, on SMARCA2, the DC50 is < 100 nM and the Dmax (commonly the largest share of the target that was removed) was > 75%. For the same compound, on SMARCA4, the DC50 is < 100 nM and the Dmax is < 50%.

For the compound `C[C@@H]1CN(CC2CN(c3ccc4c(c3)C(=O)N(C3CCC(=O)NC3=O)C4)C2)C[C@H](C)N1C(=O)N1CCN2c3cc(-c4cccc(F)c4O)nnc3NC[C@H]2C1` (stereo partly drawn) [Example 2, 3-(6-(3-(((3R,5S)-4-((S)-2-(3-fluoro-2-hydroxyphenyl)-6,6a,7,8,9,10-hexahydro-5H-pyrazino[1′,2′:4,5]pyrazino[2,3-c]pyridazine-8-carbonyl)-3,5-dimethylpiperazin-1-yl)methyl)azetidin-1-yl)-1-oxoisoindolin-2-yl)piperidine-2,6-dione], the DC50 on SMARCA2 and on SMARCA4 was < 100 nM throughout. For the same compound, the Dmax was > 75% at SMARCA2 and < 50% at SMARCA4.

With `CCC12CNc3nnc(-c4cccc(F)c4O)cc3N1CCN(C(=O)N1[C@H](C)CN(CC3CCN(c4ccc5c(c4)C(=O)N(C4CCC(=O)NC4=O)C5)CC3)C[C@H]1C)C2` (single isomer, unassigned) [Example 82], at SMARCA2, the DC50 was < 100 nM and the Dmax is > 75%. Also, at SMARCA4, the DC50 was < 100 nM and the “SMARCA4 DMax %” value is listed as “A (A=Dmax>75%)”.

`CC1(C)CN(CC2CCN(c3ccc4c(c3)C(=O)N(C3CCC(=O)NC3=O)C4)CC2)CCN1C(=O)N1CCN2c3cc(-c4cccc(F)c4O)nnc3NCC2(C)C1` (mixture of isomers) [Example 6, 3-(6-(4-((4-(2-(3-fluoro-2-hydroxyphenyl)-6a-methyl-6,6a,7,8,9,10-hexahydro-5H-pyrazino[1′,2′:4,5]pyrazino[2,3-c]pyridazine-8-carbonyl)-3,3-dimethylpiperazin-1-yl)methyl)piperidin-1-yl)-1-oxoisoindolin-2-yl)piperidine-2,6-dione]: on SMARCA2, the DC50 was < 100 nM and the Dmax was > 75%. In addition, on SMARCA4, the DC50 is < 100 nM and the Dmax was > 75%.

As for `C[C@@H]1CN(CC2CCN(c3ccc4c(c3)C(=O)N(C3CCC(=O)NC3=O)C4)CC2)C[C@H](C)N1C(=O)N1CCN2c3cc(-c4cc(F)cc(F)c4O)nnc3NCC2(C)C1` (single isomer, unassigned) [Example 64], the DC50 on SMARCA2 and on SMARCA4 was < 100 nM in each case.

On to `CC1(C)CN(CC2CCN(c3ccc4c(c3)C(=O)N(C3CCC(=O)NC3=O)C4)CC2)CCC1C(=O)N1CCN2c3cc(-c4cc(F)cc(F)c4O)nnc3NC[C@H]2C1` (stereo partly drawn) [Example 119, 3-(6-(4-((4-((S)-2-(3,5-difluoro-2-hydroxyphenyl)-6,6a,7,8,9,10-hexahydro-5H-pyrazino[1′,2′:4,5]pyrazino[2,3-c]pyridazine-8-carbonyl)-3,3-dimethylpiperidin-1-yl)methyl)piperidin-1-yl)-1-oxoisoindolin-2-yl)piperidine-2,6-dione], for which, on SMARCA2, the DC50 is < 100 nM and the Dmax is > 75%. Further, at SMARCA4, the DC50 is 100 to 1000 nM and the Dmax is < 50%.

For the compound `CCC12CNc3nnc(-c4cc(F)cc(F)c4O)cc3N1CCN(C(=O)N1CCN(CC3CCN(c4ccc5c(c4)C(=O)N(C4CCC(=O)NC4=O)C5)CC3)CC1(C)C)C2` (mixture of isomers) [Example 27, 3-(6-(4-((4-(2-(3,5-difluoro-2-hydroxyphenyl)-6a-ethyl-6,6a,7,8,9,10-hexahydro-5H-pyrazino[1′,2′:4,5]pyrazino[2,3-c]pyridazine-8-carbonyl)-3,3-dimethylpiperazin-1-yl)methyl)piperidin-1-yl)-1-oxoisoindolin-2-yl)piperidine-2,6-dione], the DC50 at SMARCA2 and at SMARCA4 was < 100 nM in each case. The Dmax is > 75% at SMARCA2 and 50 to 75% on SMARCA4.

As for `C[C@@H]1CN(CC2CCN(c3ccc4c(c3)C(=O)N(C3CCC(=O)NC3=O)C4)CC2)C[C@H](C)N1C(=O)N1CCN2c3cc(-c4cccc(Cl)c4O)nnc3NCC2(C)C1` (single isomer, unassigned) [Example 92], on SMARCA2, the DC50 is < 100 nM and the Dmax is > 75%. Further, at SMARCA4, the DC50 was > 1000 nM and the Dmax was < 50%.

With `O=C1CCC(N2Cc3ccc(N4CCOC(CN5CC6C(C5)C6CN5CCN6c7cc(-c8cc(F)cc(F)c8O)nnc7NCC6C5)C4)cc3C2=O)C(=O)N1` [Example 49, 3-(6-(2-(((1R,5S,6s)-6-(((S)-2-(3,5-difluoro-2-hydroxyphenyl)-5,6,6a,7,9,10-hexahydro-8H-pyrazino[1′,2′:4,5]pyrazino[2,3-c]pyridazin-8-yl)methyl)-3-azabicyclo[3.1.0]hexan-3-yl)methyl)morpholino)-1-oxoisoindolin-2-yl)piperidine-2,6-dione], at SMARCA2, the DC50 is < 100 nM and the Dmax was > 75%. At SMARCA4, the DC50 was < 100 nM and the Dmax was > 75%.

For the compound `C[C@@H]1CN(CC2CCN(c3ccc4c(c3)C(=O)N(C3CCC(=O)NC3=O)C4)CC2)C[C@@H](C)N1C(=O)N1CCN2c3cc(-c4cc(F)cc(F)c4O)nnc3NC[C@H]2C1` (stereo partly drawn) [Example 45, 3-(6-(4-(((3R,5R)-4-((S)-2-(3,5-difluoro-2-hydroxyphenyl)-6,6a,7,8,9,10-hexahydro-5H-pyrazino[1′,2′:4,5]pyrazino[2,3-c]pyridazine-8-carbonyl)-3,5-dimethylpiperazin-1-yl)methyl)piperidin-1-yl)-1-oxoisoindolin-2-yl)piperidine-2,6-dione], at SMARCA2, the DC50 was < 100 nM and the Dmax was > 75%. Moreover, on SMARCA4, the DC50 is < 100 nM and the Dmax was < 50%.

As for `CCC12CNc3nnc(-c4cc(F)cc(F)c4O)cc3N1CCN(C(=O)N1[C@H](C)CN(CC3CCN(c4ccc5c(c4)C(=O)N(C4CCC(=O)NC4=O)C5)CC3)C[C@@H]1C)C2` (single isomer, unassigned) [Example 87], the DC50 on SMARCA2 and on SMARCA4 was < 100 nM throughout.

On to `C[C@@H]1CN(C[C@H]2CCN(c3ccc4c(c3)C(=O)N(C3CCC(=O)NC3=O)C4)C[C@@H]2F)C[C@H](C)N1C(=O)N1CCN2c3cc(-c4cc(F)cc(F)c4O)nnc3NC[C@H]2C1` (mixture of isomers) [Example 42, 3-(6-((rac-3R,4R)-4-(((3S,5R)-4-((S)-2-(3,5-difluoro-2-hydroxyphenyl)-6,6a,7,8,9,10-hexahydro-5H-pyrazino[1′,2′:4,5]pyrazino[2,3-c]pyridazine-8-carbonyl)-3,5-dimethylpiperazin-1-yl)methyl)-3-fluoropiperidin-1-yl)-1-oxoisoindolin-2-yl)piperidine-2,6-dione], for which the DC50 on SMARCA2 and on SMARCA4 was < 100 nM in each case. Also, the Dmax at SMARCA2 was > 75%; on SMARCA4, < 50%.

With `O=C1CCC(N2Cc3ccc(N4CCN(C[C@H]5CC[C@H](CN6CCN7c8cc(-c9cc(F)cc(F)c9O)nnc8NC[C@H]7C6)CC5)CC4)cc3C2=O)C(=O)N1` (some centres unmarked) [Example 54], on SMARCA2, the DC50 is < 100 nM and the greatest degradation seen (Dmax) is > 75%. In addition, on SMARCA4, the DC50 was < 100 nM and the Dmax was > 75%.

Regarding `O=C1CCC(N2Cc3ccc(N4CCN(C[C@H]5CC[C@H](CN6CCN7c8cc(-c9cccc(F)c9O)nnc8NC[C@H]7C6)CC5)CC4)cc3C2=O)C(=O)N1` (stereo partly drawn) [Example 58, 3-(6-(4-(((1S,4r)-4-(((S)-2-(3-fluoro-2-hydroxyphenyl)-5,6,6a,7,9,10-hexahydro-8H-pyrazino[1′,2′:4,5]pyrazino[2,3-c]pyridazin-8-yl)methyl)cyclohexyl)methyl)piperazin-1-yl)-1-oxoisoindolin-2-yl)piperidine-2,6-dione], the DC50 at SMARCA2 and at SMARCA4 was < 100 nM in each case. The Dmax on SMARCA2 was > 75%; at SMARCA4 it was 50 to 75%.

On to `O=C1CCC(N2Cc3ccc(N4CC[C@H](CN5C[C@@H]6[C@H](C5)[C@H]6CN5CCN6c7cc(-c8cc(F)cc(F)c8O)nnc7NC[C@H]6C5)[C@@H](F)C4)cc3C2=O)C(=O)N1` (single isomer, unassigned) [Example 37], for which, at SMARCA2, the DC50 is < 100 nM and the Dmax is > 75%. For the same compound, the DC50 at SMARCA4 is < 100 nM.
